Experimental data from patent US11932595B2, “VDR-silent vitamin D derivative as inhibitors of SREBP and pharmaceutical use thereof” (KYOTO UNIVERSITY, priority 2020, dated 2024).

Assays:
[1] = tested on: SREBP; assay: SREBP luciferase reporter assay (pSRE-Luc) in CHO-K1 cells; assay type: cell-based; conditions: CHO-K1 cells
Method: Cell Culture: CHO-K1 cells were maintained in medium A (1:1 mixture of Ham's F-12 medium and DMEM, supplemented with 100 units/mL penicillin, 100 μg/mL streptomycin sulfate, and 5% [v/v] fetal bovine serum) at 37° C. in a humidified 5% CO2 incubator.
CHO-K1 cells were seeded into 96-well plates at 8×10^3 cells per well in medium A and incubated for 24 h. For SREBP reporter assay, cells were co-transfected with an SRE-1-driven luciferase reporter plasmid (pSRE-Luc) and an actin promoter-driven β-galactosidase expression plasmid (pAc-13-gal) at a 20:1 ratio, using FuGENE HD Transfection Reagent (Promega) according to the manufacturer's protocol.
After 20 h, the medium was changed to medium B (1:1 mixture of Ham's F-12 medium and DMEM, supplemented with 100 units/mL penicillin, 100 μg/mL streptomycin sulfate, 5% [v/v] lipid-depleted serum, 50 μM compactin (Tokyo Chemical Industry), and 50 μM lithium mevalonate (Sigma-Aldrich) containing the specific test compounds. After 24 h incubation, the cells in each well were lysed with 100 μL of 1× Reporter Lysis Buffer (Promega), and 50 μL of aliquots were used to measure luciferase and 13-gal activities. Luciferase activity was measured using the Steady-Glo Luciferase Assay System (Promega), and 13-gal activity was measured using the 13-Galactosidase Enzyme Assay System (Promega). Luciferase activity was normalized to 13-gal activity.
[…] The same experiment using of 25(OH)D3 (1) was performed as control. Values are mean±SD.

[2] = tested on: SREBP-responsive genes; assay: Short-term in vivo model (fasting/refeeding): hepatic mRNA of SREBP-responsive genes by real-time PCR; design: species or system mice
Method: (§1) To quickly and simultaneously examine their SREBP inhibitory activity and VDR-derived calcemic activity in vivo, a short-term in vivo screening system of mice was established. With reference to the previous report (Horton, J. D. et al. Proc. Natl. Acad. Sci. U.S.A. 1998, 95, 5987-5992.), mice were fasted for 48 hours then refed a special diet (low fat, high carbohydrate diet, lacking in vitamin D) for 48 hours before sacrifice.
(§2) C57BL/6 and oh/oh mice were purchased from CLEA Japan and Charles River Japan, Inc., respectively. Animal experiments were carried out at the University of Tokyo and Charles River Laboratories. Low fat, high carbohydrate diet, lacking vitamin D was custom made by Research Diets, Inc. Compounds disclosed herein and 25(OH)D3 were dissolved in ethanol/Tween 20 (9:1) to obtain stock solution and then diluted 10-fold with PBS immediately before administration to mice.
(§3) 10 mg/kg compounds or vehicle control were administered intraperitoneally once every 24 hours during the fasting and refeeding.
Relative mRNA levels of SREBP-responsive genes were determined by real-time PCR in the livers obtained from the mice with free access to a normal diet or fasted and refed a special diet (means SEM, n=3 per group), *p<0.05.
Expression levels of SREBP-responsive genes were determined by real-time PCR in the livers obtained from the mice treated with indicated compounds (10 mg/kg) according to the protocol illustrated in FIG. 5A. Data are expressed as relative expression to the mean value of vehicle-treated mouse liver (means±SEM, n=3 per group), *p<0.05 (FIG. 5C).
Relative mRNA levels of SREBP-responsive genes were determined by real-time PCR in the livers obtained from the indicated mice Data are means±SEM (fed mice, n=3; others, n=6), *p<0.05 (FIG. 5E).

[3] = Short-term in vivo model: serum calcium levels; design: species or system mice; conditions: 10 mg/kg intraperitoneally, after 4 days, n=3, FIG. 5D
Method: as §1, §2, §3
(§4) Following sacrifice, mouse livers were fixed in 10% neutral-buffered formalin, embedded in paraffin, sectioned, and stained with H&E. Hepatic lipids were extracted with chloroform/methanol (2:1 v/v), and TG and cholesterol contents were measured with Triglyceride Reagent Set (Pointe Scientific) and Cholesterol E (Wako), respectively. Serum levels of ALT, TG, glucose, cholesterol, and calcium were measured in SRL Inc. (Tokyo). All experiments were approved by the Ethics Committee for Animal Experimentation of the University of Tokyo and Charles River Laboratories Japan, and were conducted in accordance with the Guidelines for the Care and Use of Laboratory Animals.
Serum calcium levels in the mice treated with vehicle, compounds, or 25(OH)D3 were determined (means±SEM, n=3 per group), *p<0.05 (FIG. 5D).

[4] = tested on: ob/ob mice; assay: Long-term in vivo model of fatty liver in ob/ob mice
Method: as §2, §4
Six-week-old ob/ob mice were treated with 10 mg/kg KK-052, 10 mg/kg 25(OH)D3, or vehicle control 5 times per week for 4 weeks (FIG. 7A).
Body weights of ob/ob mice were measured and data are given as means±SEM (25(OH)D3, n=5; others, n=8), *p<0.05 (FIG. 7B).
Hepatic TG and cholesterol contents were measured in KK-052- or vehicle-treated ob/ob mice (means±SEM), *p<0.05 (FIG. 7D).
Serum levels of ALT, TG, total cholesterol, glucose, and calcium were measured in KK-052- or vehicle-treated ob/ob mice (means±SEM), *p<0.05 (FIG. 7E).

[5] = tested on: SREBP-responsive genes; conditions: low μM dose, cultured cells; cited from earlier work
[6] = 10 mg/kg 5 times per week for 4 weeks
[7] = ob/ob mice, versus vehicle, FIG. 7D

Row | serum calcium levels versus vehicle-treated group ([4]; ob/ob mice, 10 mg/kg, 4 weeks, FIG. 7E) | SMILES | inhibition of activation of the SREBP reporter gene, concentration dependence ([1]; FIG. 6A) | hepatic expression of SREBP-response genes ACC1 and FASN versus vehicle ([2]; 10 mg/kg intraperitoneally once every 24 hours, fasted 48 h/refed 48 h, n=3, FIG. 5C) | elevated hepatic expression of the three SREBP-responsive genes ACC1, FASN and SCD1 ([2]; 10 mg/kg intraperitoneally, fasting/refeeding, FIG. 5C) | elevated hepatic expression of the four SREBP-responsive genes, repeated examination ([2]; 10 mg/kg, increased number of mice (n=6), FIG. 5E) | serum calcium levels [3] | general condition of treated ob/ob mice [4, 6] | weight gain ([4]; ob/ob mice, 10 mg/kg 5 times per week for 4 weeks, FIG. 7B) | liver steatosis (H&E histology) ([4]; ob/ob mice, 10 mg/kg, 4 weeks, FIG. 7C) | serum level of TG ([4]; ob/ob mice, FIG. 7E) | serum level of alanine aminotransferase (ALT) ([4]; ob/ob mice, FIG. 7E) | serum level of glucose ([4]; ob/ob mice, FIG. 7E) | hepatic cholesterol content [4, 7] | hepatic triglyceride (TG) content [4, 7] | SREBP inhibitory activity (expression of SREBP-responsive luciferase reporter gene) ([1]; 5 μM compound, lipid-free medium, 24 h, FIGS. 1 and 3) | cellular lipogenesis [5]
1 | no detectable difference | C[C@H](CCC(F)(F)C(C)(C)O)[C@H]1CC[C@H]2/C(=C/Cn3nnnc3-c3ccccc3)CCC[C@]12C [Compound 50, (R)-3,3-Difluoro-2-methyl-6-{(1R,3aS,7aR,E)-7a-methyl-4-[2-(5-phenyl-1H-tetrazol-1-yl)ethylidene]octahydro-1H-inden-1-yl}heptan-2-ol] | concentration-dependent manner comparable to 25(OH)D3 | significantly suppressed | mitigated the elevated expression | significantly mitigated | no detectable increase | appeared healthy until the end of the experiments | slightly but significantly decreased | attenuated | significantly decreased | significantly decreased | significantly decreased | significantly decreased | significantly decreased |  | 
2 |  | C=C1CC[C@H](O)C/C1=C/C=C1\CCC[C@]2(C)[C@@H]([C@H](C)CCCC(C)(C)O)CC[C@@H]12 [25(OH)D3, 25-hydroxyvitamin D3, reference compound] |  |  |  |  | markedly increased | became sick due to hypercalcemia and euthanized at 1 week |  |  |  |  |  |  |  | substantial inhibitory activity | inhibits cellular lipogenesis
